Results published in patent US5776944A, “7-(4-aminomethyl-3-methyloxyiminopyrroplidin-1-yl)-1-cyclopropyl-6-flu oro-4-oxo-1,4-dihydro-1,8-naphthyridine-3-carboxylic acid and the process for the preparation thereof” (LG Chemical Ltd., priority 1994, dated 1998).

Assays:
[1] = Moisture content according to hydration number; assay type: physicochemical; settings: actual moisture content, methanesulfonate hydrates
Protocol: The moisture content of the hydrate varies with the hydration number (n) of the hydrated molecule. Since the molecular weight of 7-(4-amino-methyl-3-methyloxylminopyrrolidin-1-yl)-1-cyclopropyl-6-fluoro- 4-oxo-1,4-dihydro-1,8-naphthyridine-3-carboxylic acid methanesulfonate is 485.5, the moisture content of the hydrate for n equal to 1, 1.5, 2, 2.5, 3, 3.5 or 4 is calculated to be 3.6%, […], 6.9%, 8.5%, 10.0%, 11.5% or 12.9%, respectively. However, the actual moisture content may differ from the calculated moisture content depending on differences in recrystallization conditions, drying conditions, etc.

[2] = Chemical stability under heating; settings: for thermal stability: hydrate
Protocol: The anhydride and each of the hydrates was introduced into a glass vial and maintained at 70° C.

[3] = Equilibrium moisture content determination of hydrates; assay type: physicochemical
Protocol: Six saturated aqueous salt solutions were introduced into each desiccator to control the inner relative humidity to a specific value as represented in the following Table 28. Then, equilibrium moisture contents of 3 hydrate and 1.5 hydrate prepared in Examples 205 and 206, respectively, were determined at several relative humidities.
Specifically, 100 mg of the sample was spread on a preweighed Petri dish and the total weight was accurately measured, then three of the sample were placed in each desiccator of Table 28. The desiccators were allowed to stand at normal temperature for 7 days and then the sample was taken to be weighed. After 13 days had passed, one of the three samples inside each desiccator was taken and the moisture content of each was measured by the thermogravimetric analysis described in Test Example 2. Equilibrium moisture content at each relative humidity is represented in FIG. 3 (3 hydrate), and FIG. 4 (1.5 hydrate). […] Both hydrates are stable since they keep a constant equilibrium moisture content regardless of the relative humidity change.

## CON=C1CN(c2nc3c(cc2F)c(=O)c(C(=O)O)cn3C2CC2)CC1CN (centres unmarked) [1 hydrate, 7-(4-aminomethyl-3-methyloxylminopyrrolidin-1-yl)-1-cyclopropyl-6-fluoro-4-oxo-1,4-dihydro-1,8-naphthyridine-3-carboxylic acid methanesulfonate]
[1]
  Moisture Content: 2-4%

## CON=C1CN(c2nc3c(cc2F)c(=O)c(C(=O)O)cn3C2CC2)CC1CN (centres unmarked) [1.5 hydrate, 7-(4-aminomethyl-3-methyloxyiminopyrrolidin-1-yl)-1-cyclopropyl-6-fluoro-4-oxo-1,4-dihydro-1,8-naphthyridine-3-carboxylic acid methanesulfonate·1.5 hydrate]
[1]; hydrate
  Moisture Content: 4-6%
[2]; 70° C., Table 29
  thermal stability compared with the anhydride: the same degree of thermal stability as the anhydride
[2]; 20160 min
  thermal stability: 95.80%
[2]; 40320 min
  thermal stability: 96.17%
[2]
  thermal stability: 100%
[2]; thermal stability, 1 week, 70° C.
  remaining at 168 h: 97.2%
[2]; thermal stability, 3 weeks, 70° C.
  remaining at 504 h: 97.2%
[3]
  stability of hydrate towards relative humidity change: stable
[3]; relative humidity 23 to 64%
  equilibrium moisture content: around 5%

## CON=C1CN(c2nc3c(cc2F)c(=O)c(C(=O)O)cn3C2CC2)CC1CN (centres unmarked) [2 hydrate, 7-(4-aminomethyl-3-methyloxylminopyrrolidin-1-yl)-1-cyclopropyl-6-fluoro-4-oxo-1,4-dihydro-1,8-naphthyridine-3-carboxylic acid methanesulfonate]
[1]
  Moisture Content: 6-8%

## CON=C1CN(c2nc3c(cc2F)c(=O)c(C(=O)O)cn3C2CC2)CC1CN (centres unmarked) [2.5 hydrate, 7-(4-aminomethyl-3-methyloxylminopyrrolidin-1-yl)-1-cyclopropyl-6-fluoro-4-oxo-1,4-dihydro-1,8-naphthyridine-3-carboxylic acid methanesulfonate]
[1]
  Moisture Content: 8-9%

## CON=C1CN(c2nc3c(cc2F)c(=O)c(C(=O)O)cn3C2CC2)CC1CN (centres unmarked) [3.5 hydrate, 7-(4-aminomethyl-3-methyloxylminopyrrolidin-1-yl)-1-cyclopropyl-6-fluoro-4-oxo-1,4-dihydro-1,8-naphthyridine-3-carboxylic acid methanesulfonate]
[1]
  Moisture Content: 11-12%

## CON=C1CN(c2nc3c(cc2F)c(=O)c(C(=O)O)cn3C2CC2)CC1CN (centres unmarked) [4 hydrate, 7-(4-aminomethyl-3-methyloxylminopyrrolidin-1-yl)-1-cyclopropyl-6-fluoro-4-oxo-1,4-dihydro-1,8-naphthyridine-3-carboxylic acid methanesulfonate]
[1]
  Moisture Content: 12-13%
